System: 857933-349-R-J2-PDC complex spheroid viability
Assay: Anticancer human tumor 857933-349-R-J2-PDC patient-derived colon adenocarcinoma cell line growth inhibition [POLQ]
Conditions: for IC50: curve of first compound; for viability, T/C: stronger effect = lower value
In short: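 Growth inhibition in 3D: complex spheroids (tumor PDC, HUVEC, MSC) treated with POLQ inhibitor combinations; where Cmax unknown, highest tested concentration 10 microM, except SN-38 at 1 microM.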

[1] = second compound 0.0316 µM, first compound 0.0316 µM
[2] = second compound 0.0316 µM, first compound 0.1 µM
[3] = second compound 0.0316 µM, first compound 0.316 µM
[4] = second compound 0.0316 µM, first compound 1 µM
[5] = second compound 0.0316 µM, first compound 3.16 µM
[6] = second compound 0.0316 µM, first compound 10 µM
[7] = second compound 0.1 µM, first compound 0.0316 µM
[8] = second compound 0.1 µM, first compound 0.1 µM
[9] = second compound 0.1 µM, first compound 0.316 µM
[10] = second compound 0.1 µM, first compound 1 µM
[11] = second compound 0.1 µM, first compound 3.16 µM
[12] = second compound 0.1 µM, first compound 10 µM
[13] = second compound 0.316 µM, first compound 0.0316 µM
[14] = second compound 0.316 µM, first compound 0.1 µM
[15] = second compound 0.316 µM, first compound 0.316 µM
[16] = second compound 0.316 µM, first compound 1 µM
[17] = second compound 0.316 µM, first compound 3.16 µM
[18] = second compound 0.316 µM, first compound 10 µM
[19] = second compound 1 µM, first compound 0.0316 µM
[20] = second compound 1 µM, first compound 0.1 µM
[21] = second compound 1 µM, first compound 0.316 µM
[22] = second compound 1 µM, first compound 1 µM
[23] = second compound 1 µM, first compound 3.16 µM
[24] = second compound 1 µM, first compound 10 µM
[25] = second compound 3.16 µM, first compound 0.0316 µM
[26] = second compound 3.16 µM, first compound 0.1 µM
[27] = second compound 3.16 µM, first compound 0.316 µM
[28] = second compound 3.16 µM, first compound 1 µM
[29] = second compound 3.16 µM, first compound 3.16 µM
[30] = second compound 3.16 µM, first compound 10 µM
[31] = second compound 10 µM, first compound 0.0316 µM
[32] = second compound 10 µM, first compound 0.1 µM
[33] = second compound 10 µM, first compound 0.316 µM
[34] = second compound 10 µM, first compound 1 µM
[35] = second compound 10 µM, first compound 3.16 µM
[36] = second compound 10 µM, first compound 10 µM
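Note: spheroids exposed to compounds for seven days before readout.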

CNCc1ccc(-c2[nH]c3cc(F)cc4c3c2CCNC4=O)cc1 + Cc1cccc(N(C)C(=O)C2C(O)CCN2c2nc(C)cc(C(F)(F)F)c2C#N)c1 showed an IC50 (second compound 0.0316 µM) of over 10 µM, an IC50 (second compound 0.1 µM) of over 10 µM and an IC50 (second compound 0.316 µM) of over 10 µM. The IC50 (second compound 1 µM) was over 10 µM, the IC50 (second compound 3.16 µM) was over 10 µM and the IC50 (second compound 10 µM) was over 10 µM. It also gave a viability, T/C [1] of 98.9%, a viability, T/C [2] of 111% and a viability, T/C [3] of 96.3%. It also gave a viability, T/C [4] of 99.2%, a viability, T/C [5] of 78.9% and a viability, T/C [6] of 99.7%. The viability, T/C [7] was 103%, the viability, T/C [8] was 90.7% and the viability, T/C [9] was 90.7%. For the same compound, the viability, T/C [10] was 76.4%, the viability, T/C [11] was 102% and the viability, T/C [12] was 104%. For the same compound, the viability, T/C [13] was 97.3%, the viability, T/C [14] was 104% and the viability, T/C [15] was 108%. For the same compound, the viability, T/C [16] was 95.5%, the viability, T/C [17] was 103% and the viability, T/C [18] was 89.5%. The viability, T/C [19] was 120%, the viability, T/C [20] was 98.5% and the viability, T/C [21] was 90.7%. It also gave a viability, T/C [22] of 86.5%, a viability, T/C [23] of 104% and a viability, T/C [24] of 79.3%. The viability, T/C [25] was 88.7%, the viability, T/C [26] was 112% and the viability, T/C [27] was 95.7%. For the same compound, the viability, T/C [28] was 105%, the viability, T/C [29] was 95.4% and the viability, T/C [30] was 80.5%. The viability, T/C [31] was 102%, the viability, T/C [32] was 106% and the viability, T/C [33] was 117%. For the same compound, the viability, T/C [34] was 68.4%, the viability, T/C [35] was 116% and the viability, T/C [36] was 86.3%.

Compound C=CCn1c(=O)c2cnc(Nc3ccc(N4CCN(C)CC4)cc3)nc2n1-c1cccc(C(C)(C)O)n1 + Nc1ccc(C#CCN(C(=O)Cc2ncc(C(F)(F)F)cc2C(F)(F)F)c2ccc(F)cc2)nn1 has an IC50 (second compound 0.0316 µM) of over 1 µM, an IC50 (second compound 0.1 µM) of over 1 µM and an IC50 (second compound 0.316 µM) of over 1 µM. It also gave an IC50 (second compound 1 µM) of over 1 µM, an IC50 (second compound 3.16 µM) of over 1 µM and an IC50 (second compound 10 µM) of over 1 µM. It also gave a viability, T/C (second compound 0.0316 µM, first compound 0.00316 µM) of 105%, a viability, T/C (second compound 0.0316 µM, first compound 0.01 µM) of 98.7% and a viability, T/C [1] of 91.4%. It also gave a viability, T/C [2] of 105%, a viability, T/C [3] of 88.8% and a viability, T/C [4] of 74.7%. The viability, T/C (second compound 0.1 µM, first compound 0.00316 µM) was 105%, the viability, T/C (second compound 0.1 µM, first compound 0.01 µM) was 122% and the viability, T/C [7] was 95.4%. It also gave a viability, T/C [8] of 91.9%, a viability, T/C [9] of 88.1% and a viability, T/C [10] of 73.8%. For the same compound, the viability, T/C (second compound 0.316 µM, first compound 0.00316 µM) was 60.7%, the viability, T/C (second compound 0.316 µM, first compound 0.01 µM) was 95.8% and the viability, T/C [13] was 94%. The viability, T/C [14] was 88.7%, the viability, T/C [15] was 103% and the viability, T/C [16] was 75.4%. For the same compound, the viability, T/C (second compound 1 µM, first compound 0.00316 µM) was 96.5%, the viability, T/C (second compound 1 µM, first compound 0.01 µM) was 93.6% and the viability, T/C [19] was 90.6%. It also gave a viability, T/C [20] of 106%, a viability, T/C [21] of 102% and a viability, T/C [22] of 74.4%. The viability, T/C (second compound 3.16 µM, first compound 0.00316 µM) was 102%, the viability, T/C (second compound 3.16 µM, first compound 0.01 µM) was 93.2% and the viability, T/C [25] was 74.9%. For the same compound, the viability, T/C [26] was 101%, the viability, T/C [27] was 68.8% and the viability, T/C [28] was 75.9%. The viability, T/C (second compound 10 µM, first compound 0.00316 µM) was 113%, the viability, T/C (second compound 10 µM, first compound 0.01 µM) was 106% and the viability, T/C [31] was 94%. It also gave a viability, T/C [32] of 78.7%, a viability, T/C [33] of 85.9% and a viability, T/C [34] of 66.5%.

For CC1COCCN1c1cc(C2(S(C)(=N)=O)CC2)nc(-c2ccnc3[nH]ccc23)n1 (stereo unspecified) + COC1C(OC(N)=O)C(O)C(Oc2ccc3c(O)c(NC(=O)c4ccc(O)c(CC=C(C)C)c4)c(=O)oc3c2C)OC1(C)C, the IC50 (second compound 0.0316 µM) was 4.83 µM, the IC50 (second compound 0.1 µM) was 4.54 µM and the IC50 (second compound 0.316 µM) was 4.01 µM. The IC50 (second compound 1 µM) was 4.46 µM, the IC50 (second compound 3.16 µM) was 4.77 µM and the IC50 (second compound 10 µM) was 4.93 µM. It also gave a viability, T/C [1] of 105%, a viability, T/C [2] of 107% and a viability, T/C [3] of 80.2%. It also gave a viability, T/C [4] of 77.6%, a viability, T/C [5] of 70.1% and a viability, T/C [6] of 27.7%. The viability, T/C [7] was 85.6%, the viability, T/C [8] was 84.5% and the viability, T/C [9] was 73.7%. The viability, T/C [10] was 73.3%, the viability, T/C [11] was 57.2% and the viability, T/C [12] was 34.2%. For the same compound, the viability, T/C [13] was 84.9%, the viability, T/C [14] was 86.1% and the viability, T/C [15] was 74.7%. It also gave a viability, T/C [16] of 77.8%, a viability, T/C [17] of 53.6% and a viability, T/C [18] of 33%. For the same compound, the viability, T/C [19] was 101%, the viability, T/C [20] was 98.7% and the viability, T/C [21] was 79.1%. For the same compound, the viability, T/C [22] was 72.1%, the viability, T/C [23] was 55.2% and the viability, T/C [24] was 37.9%. It also gave a viability, T/C [25] of 94.6%, a viability, T/C [26] of 89.5% and a viability, T/C [27] of 97%. For the same compound, the viability, T/C [28] was 86.4%, the viability, T/C [29] was 57.2% and the viability, T/C [30] was 37.2%. The viability, T/C [31] was 118%, the viability, T/C [32] was 79.4% and the viability, T/C [33] was 85.7%. It also gave a viability, T/C [34] of 77.2%, a viability, T/C [35] of 55.7% and a viability, T/C [36] of 38.6%.

— PubChem BioAssay AID1963836 (Molecular Pharmacology Branch, DTP, NCI, 2024)
